Assays:
Assay type in all cases: cell-based
E. coli 2806 = assay: Broth microdilution MIC (strain enzymes: SHV-12, TEM-1)
K. pneumoniae ESBL 8 #1 = assay: Broth microdilution MIC (strain enzymes: TEM-1, SHV-12)
E. coli SI-NO36 = assay: Broth microdilution MIC (strain enzymes: SHV-11, TEM-1)
K. pneumoniae 115468 = assay: Broth microdilution MIC (strain enzymes: TEM-1)
K. pneumoniae KP 4 = assay: Broth microdilution MIC (strain enzymes: SHV-2a, SHV-5, TEM-1)

CCC(=O)N[C@H]1Cc2cccc(C(=O)O)c2OB1O [Compound 2, (R)-2-hydroxy-3-propionamido-3,4-dihydro-2H-benzo[e][1,2]oxaborinine-8-carboxylic acid]
0.25 µg/mL: MIC of cefixime (CFM) (E. coli 2806; with inhibitor at 1 μg/mL) | MIC of cefalexin (LEX) (E. coli 2806; with inhibitor at 4 μg/mL) | MIC of cefdinir (CDR) (E. coli 2806; with inhibitor at 4 μg/mL) | MIC of cefalexin (LEX) (K. pneumoniae ESBL 8 #1; with inhibitor at 1 μg/mL) | MIC of cefdinir (CDR) (K. pneumoniae ESBL 8 #1; with inhibitor at 1 μg/mL) | MIC of ceftibuten (CTB) (K. pneumoniae ESBL 8 #1; with inhibitor at 1 μg/mL) | MIC of cefalexin (LEX) (K. pneumoniae ESBL 8 #1; with inhibitor at 4 μg/mL) | MIC of cefdinir (CDR) (K. pneumoniae ESBL 8 #1; with inhibitor at 4 μg/mL) | MIC of cefixime (CFM) (K. pneumoniae ESBL 8 #1; with inhibitor at 4 μg/mL) | MIC of cefixime (CFM) (E. coli SI-NO36; with inhibitor at 2 μg/mL) | MIC of cefalexin (LEX) (E. coli SI-NO36; with inhibitor at 4 μg/mL) | MIC of cefdinir (CDR) (E. coli SI-NO36; with inhibitor at 4 μg/mL) | MIC of cefalexin (LEX) (K. pneumoniae 115468; with inhibitor at 2 μg/mL) | MIC of cefdinir (CDR) (K. pneumoniae 115468; with inhibitor at 2 μg/mL) | MIC of ceftibuten (CTB) (K. pneumoniae KP 4; with inhibitor at 1 μg/mL) | MIC of cefixime (CFM) (K. pneumoniae KP 4; with inhibitor at 4 μg/mL)
0.06 µg/mL: MIC of ceftibuten (CTB) (E. coli 2806; with inhibitor at 1 μg/mL) | MIC of ceftibuten (CTB) (K. pneumoniae ESBL 8 #1; with inhibitor at 4 μg/mL) | MIC of ceftibuten (CTB) (E. coli SI-NO36; with inhibitor at 1 μg/mL) | MIC of ceftibuten (CTB) (E. coli SI-NO36; with inhibitor at 4 μg/mL) | MIC of ceftibuten (CTB) (K. pneumoniae 115468; with inhibitor at 1 μg/mL) | MIC of ceftibuten (CTB) (K. pneumoniae 115468; with inhibitor at 2 μg/mL) | MIC of ceftibuten (CTB) (K. pneumoniae 115468; with inhibitor at 4 μg/mL)
2 µg/mL: MIC of cefixime (CFM) (K. pneumoniae ESBL 8 #1; with inhibitor at 1 μg/mL) | MIC of cefixime (CFM) (K. pneumoniae 115468; with inhibitor at 1 μg/mL) | MIC of cefixime (CFM) (K. pneumoniae KP 4; with inhibitor at 1 μg/mL)
0.5 µg/mL: MIC of cefixime (CFM) (K. pneumoniae ESBL 8 #1; with inhibitor at 2 μg/mL) | MIC of cefixime (CFM) (E. coli SI-NO36; with inhibitor at 1 μg/mL) | MIC of cefixime (CFM) (E. coli SI-NO36; with inhibitor at 4 μg/mL) | MIC of cefalexin (LEX) (K. pneumoniae 115468; with inhibitor at 1 μg/mL) | MIC of cefdinir (CDR) (K. pneumoniae 115468; with inhibitor at 1 μg/mL) | MIC of cefixime (CFM) (K. pneumoniae 115468; with inhibitor at 2 μg/mL) | MIC of cefixime (CFM) (K. pneumoniae 115468; with inhibitor at 4 μg/mL) | MIC of cefalexin (LEX) (K. pneumoniae KP 4; with inhibitor at 1 μg/mL) | MIC of cefdinir (CDR) (K. pneumoniae KP 4; with inhibitor at 1 μg/mL) | MIC of cefalexin (LEX) (K. pneumoniae KP 4; with inhibitor at 2 μg/mL) | MIC of cefdinir (CDR) (K. pneumoniae KP 4; with inhibitor at 2 μg/mL) | MIC of cefixime (CFM) (K. pneumoniae KP 4; with inhibitor at 2 μg/mL)
0.125 µg/mL: MIC of cefalexin (LEX) (E. coli 2806; with inhibitor at 1 μg/mL) | MIC of cefdinir (CDR) (E. coli 2806; with inhibitor at 1 μg/mL) | MIC of cefalexin (LEX) (E. coli 2806; with inhibitor at 2 μg/mL) | MIC of cefdinir (CDR) (E. coli 2806; with inhibitor at 2 μg/mL) | MIC of cefixime (CFM) (E. coli 2806; with inhibitor at 2 μg/mL) | MIC of ceftibuten (CTB) (E. coli 2806; with inhibitor at 2 μg/mL) | MIC of cefixime (CFM) (E. coli 2806; with inhibitor at 4 μg/mL) | MIC of ceftibuten (CTB) (E. coli 2806; with inhibitor at 4 μg/mL) | MIC of cefalexin (LEX) (K. pneumoniae ESBL 8 #1; with inhibitor at 2 μg/mL) | MIC of cefdinir (CDR) (K. pneumoniae ESBL 8 #1; with inhibitor at 2 μg/mL) | MIC of ceftibuten (CTB) (K. pneumoniae ESBL 8 #1; with inhibitor at 2 μg/mL) | MIC of cefalexin (LEX) (E. coli SI-NO36; with inhibitor at 1 μg/mL) | MIC of cefdinir (CDR) (E. coli SI-NO36; with inhibitor at 1 μg/mL) | MIC of cefalexin (LEX) (E. coli SI-NO36; with inhibitor at 2 μg/mL) | MIC of cefdinir (CDR) (E. coli SI-NO36; with inhibitor at 2 μg/mL) | MIC of ceftibuten (CTB) (E. coli SI-NO36; with inhibitor at 2 μg/mL) | MIC of cefalexin (LEX) (K. pneumoniae 115468; with inhibitor at 4 μg/mL) | MIC of cefdinir (CDR) (K. pneumoniae 115468; with inhibitor at 4 μg/mL) | MIC of ceftibuten (CTB) (K. pneumoniae KP 4; with inhibitor at 2 μg/mL) | MIC of cefalexin (LEX) (K. pneumoniae KP 4; with inhibitor at 4 μg/mL) | MIC of cefdinir (CDR) (K. pneumoniae KP 4; with inhibitor at 4 μg/mL) | MIC of ceftibuten (CTB) (K. pneumoniae KP 4; with inhibitor at 4 μg/mL)

Reference: patent US12544395B2, “Combination compositions comprising a beta-lactamase inhibitor and uses thereof” (priority 2018, dated 2026)
